These results are taken from patent publication US20130029976A1, “PEST CONTROLLING COMPOSITION” (SUMITOMO CHEMICAL COMPANY, LIMITED, priority 2010, published 2013).

The test system of the assay is third instar larvae of Spodoptera litura. Nature of the assay: Test Example 1: cabbage leaf immersion test, insecticidal ratio. It is filed as in vivo. The note with it: cabbage leaf immersed 60 seconds, 2 days after, three replications. Here is the method:
A flowable formulation containing 10.0% by weight of pyridalyl (trade name: Pleo® flowable, manufactured by Sumitomo Chemical Co., Ltd.) was diluted with water containing 0.02% by volume of a spreading agent (trade name: Sindain®, manufactured by Sumitomo Chemical Co., Ltd.) so as to adjust the concentration of pyridalyl to 12.5 ppm.
A flowable formulation containing 10.0% by weight of indoxacarb (trade name: Tornado® flowable, manufactured by DuPont) was diluted with water containing 0.02% by volume of a spreading agent (trade name: Sindain®, manufactured by Sumitomo Chemical Co., Ltd.) so as to adjust the concentration of indoxacarb to 6.25 ppm.
The water dilution of pyridalyl and the water dilution of indoxacarb were mixed in the same amount to prepare a test chemical solution.
A cabbage was planted in a pot having a volume of 860 ml and grown to the forth leaf stage. Each leaf of the cabbage seedling was cut off. One leaf of the cabbage was immersed in the test chemical solution for 60 seconds. After air-drying, the leaf was placed in a cup having a volume of 500 ml in which filter paper had been spread on the bottom. In the cup, 10 third instar larvae of Spodoptera litura were released (the inside of the cup containing the treated cabbage was regarded as the treated area). […]
An insecticidal ratio was calculated by correcting the results using the following equation. […]

Each structure is given as a SMILES string.

For `FC(F)(F)c1ccc(OCCCOc2c(Cl)cc(OCC=C(Cl)Cl)cc2Cl)nc1` [Pyridalyl, 2-[3-[2,6-dichloro-4-[(3,3-dichloro-2-propenyl)oxy]phenoxy]propoxy]-5-(trifluoromethyl)pyridine], under “active ingredient 6.25 ppm”, the “Insecticidal ratio (%)” value is given as 10.0%.
In the case of `COC(=O)N(C(=O)N1CO[C@@]2(C(=O)OC)Cc3cc(Cl)ccc3C2=N1)c1ccc(OC(F)(F)F)cc1` [Indoxacarb, methyl(4aS)-7-chloro-2,5-dihydro-2-[[(methoxycarbonyl)[4-(trifluoromethoxy)phenyl]amino]carbonyl]indeno[1,2-e] [1,3,4]oxadiazine-4a(3H)-carboxylate], under “active ingredient 3.13 ppm”, the “Insecticidal ratio (%)” value was determined as 16.7%.
